Results from patent EP0975351B1, “TREATMENT OF MULTIPLE SCLEROSIS THROUGH INGESTION OF COPOLYMER-1” (YEDA RESEARCH AND DEVELOPMENT CO. LTD., priority 1997, dated 1998).

How the values were obtained:
CSF WBCs = experiment: Flow cytometry of cerebral spinal fluid (CSF) cells; format: in vivo, Rhesus Monkeys
Procedure: (§1) 3 Rhesus monkeys were treated as follows: One monkey served as control and was fed with placebo capsules (containing 5mg glucose only). The second and third monkeys were fed with glatiramer acetate containing capsules at a dose of 1mg/feeding and 20mg/feeding, respectively. Animals were fed every other day for a total of 10 feedings: 5 times prior to disease induction (immunization on day 0) and then 5 times after immunization.
(§2) Disease was induced on day 0 by an intradermal injection of 8mg bovine - MBP and 3 mg H37Ra M. tuberculosis in FCA into the hind footpads, total injected volume between 0.1 and 0.15 ml per footpad. The animals were followed for clinical manifestations of EAE, a variety of serum and CSF immunological markers and spinal cord and cranial MRI's.
(§3) The Epics C flow cytometer was used to analyze both peripheral blood lymphocytes (PBL) and cerebral spinal fluid (CSF) collected from each monkey. The red blood cells were lysed and the remaining white blood cells (WBCs) were washed and stained using standard methods with appropriate reagents. Tables 3 and 4 below show the data from staining PBL and CSF WBCs from the three animals in this Example.

[1] = test system: T-cell line derived from spleens of glatiramer acetate fed rats; experiment: Proliferation assay of T-cell line from spleens of fed rats; format: cell-based; conditions: rat line cultured with glatiramer acetate as antigen (Figure 6)
Procedure: Isolation of glatiramer acetate specific T cell lines - Lewis rats were fed 5 times with 1 mg glatiramer acetate and (SJUJ x BALB/c)F, mice 7 times with 250 µg glatiramer acetate, at intervals of 2-3 days. Four to twelve days after the last feeding animals were sacrificed and their spleens removed.
Spleen cells of 3 animals were pooled and incubated (50 x 10^6/plate) with glatiramer acetate (500 µg) in medium containing 1 % autologous serum for 4 days. Every 14-21 days cells (4-6 x 10^6/plate) were restimulated by 3 days exposure to copolymer-1 (500 µg) presented on syngeneic irradiated (3000 rad) rat thymocytes (100 x 10^6/plate) or mouse splenocytes (50 x 10^6/plate). Stimulation was followed by propagation in 10% supernatant of Con A activated normal mouse spleen cells as T cell growth factor (TCGF).
Proliferation Assay - T cell lines (1 x 10^4 cells) were cultured with irradiated (3000R) thymocytes (rat-1 x 10^6) or splenocytes (mouse- 5 x 10^5) and with the indicated antigens (10 µg glatiramer acetate; 1 µg Con A) in a final volume of 0.2 ml in microtiter plates. At the end of 48 hours incubation cultures were pulsed with ^3H-thymidine and harvested 6-12 hours later.

PBL = experiment: Flow cytometry of peripheral blood lymphocytes (PBL); format: in vivo, Rhesus Monkeys; parameters: CD4+ / CD8+ / CD4+ CD45RA+ / CD8+ CD45RA+: unit not given here; conditions: for Ratio: CD4+/CD8+
Procedure: as §1, §2, §3

spleen cells = experiment: Proliferation assay of spleen cells in response to GPBP, fed mice; format: cell-based; conditions: spleen cells of orally fed mice, 10-11 days after EAE induction (Figure 2)
Procedure: Induction and Assessment of EAE - Mice were injected with 200 µg GPBP emulsified in an equal volume of complete Freund's adjuvant (CFA) containing 4 mg/ml mycobacterium tuberculosis (H37Ra) (Difco Lab, Detroit, Mich.). The emulsion at a total volume of 0.1 ml was injected into all four footpads. Immediately after and 24 hours later, pertussis toxin (250ng/mouse) (Sigma) was injected intravenously.
Induction of Oral Tolerance - Mice were fed with 250 µg GPBP or glatiramer acetate dissolved in phosphate buffered saline (PBS) on days -7, -5, -3, 0, 2, 4 and 6 by gastric intubation with an 18-gauge stainless steel feeding needle (Thomas). EAE was induced on day 0.
Proliferation Assay - The proliferation response of spleen cells was tested 10-11 days after EAE induction as described above. Cells from 3 animals in each group were pooled and cultured in triplicate (5x10^5 mouse cells and 2x10^5 rat cells) in microtiter plates with various antigen concentrations (GPBP) in a final volume of 0.2ml. Microtiter plates contained RPMI 1640 (available from Sigma Biochemicals, St. Louis, Missouri) culture medium supplemented with 1% autologous serum. After 72 hr. of incubation, cells were pulsed with 1 µCi {^3H}-thymidine for 18 hr and then harvested onto filter papers and radioactivity was counted.

[2] = animal 18498, 20mg/feeding, day +27
[3] = animal 18497, 1mg/dose, day +13
[4] = animal 18497, 1mg/dose, day +20
[5] = animal 18497, 1mg/dose, day +27
[6] = animal 18498, 20 mg/dose, day +6
[7] = animal 18498, 20 mg/dose, day +13
[8] = animal 18498, 20 mg/dose, day +20
[9] = animal 18498, 20 mg/dose, day +27
[10] = animal 18498, 20 mg/dose, day -1

Which results are given for glatiramer acetate?
Cells µl (CSF WBCs; animal 18497, 1mg/feeding, day 0): few cells; Cells µl (CSF WBCs; animal 18498, 20mg/feeding, day 0): too few cells; CD4+ (CSF WBCs; [2]): 47; CD4+ CD45RA+ (CSF WBCs; [2]): 8; Cells µl (CSF WBCs; [2]): 29.7; Cells µl (CSF WBCs; animal 18498, 20mg/feeding, day +34): too few cells; proliferation response of T-cell line [1]: proliferated in response to glatiramer acetate; Ratio (PBL; animal 18497, 1mg/dose, day +6): 1.26; Ratio (PBL; [3]): 1.09; Ratio (PBL; [4]): 1.28; Ratio (PBL; [5]): 1.3; Ratio (PBL; animal 18497, 1mg/dose, day -1): 0.97; Ratio (PBL; [6]): 0.88; Ratio (PBL; [7]): 0.89; Ratio (PBL; [8]): 0.47; Ratio (PBL; [9]): 0.71; Ratio (PBL; [10]): 0.93; CD4+ (PBL; animal 18497, 1mg/dose, day +6): 39; CD4+ CD45RA+ (PBL; animal 18497, 1mg/dose, day +6): 24; CD8+ (PBL; animal 18497, 1mg/dose, day +6): 31; CD8+ CD45RA+ (PBL; animal 18497, 1mg/dose, day +6): 29; CD4+ (PBL; [3]): 37; CD4+ CD45RA+ (PBL; [3]): 16; CD8+ (PBL; [3]): 34; CD8+ CD45RA+ (PBL; [3]): 29; CD4+ (PBL; [4]): 41; CD4+ CD45RA+ (PBL; [4]): 18; CD8+ (PBL; [4]): 32; CD8+ CD45RA+ (PBL; [4]): 25; CD4+ (PBL; [5]): 35; CD4+ CD45RA+ (PBL; [5]): 12; CD8+ (PBL; [5]): 27; CD8+ CD45RA+ (PBL; [5]): 18; CD4+ (PBL; animal 18497, 1mg/dose, day -1): 35; CD4+ CD45RA+ (PBL; animal 18497, 1mg/dose, day -1): 21; CD8+ (PBL; animal 18497, 1mg/dose, day -1): 36; CD8+ CD45RA+ (PBL; animal 18497, 1mg/dose, day -1): 33; CD4+ (PBL; [6]): 37; CD4+ CD45RA+ (PBL; [6]): 23; CD8+ (PBL; [6]): 42; CD8+ CD45RA+ (PBL; [6]): 32; CD4+ (PBL; [7]): 41; CD4+ CD45RA+ (PBL; [7]): 24; CD8+ (PBL; [7]): 46; CD8+ CD45RA+ (PBL; [7]): 37; CD4+ (PBL; [8]): 27; CD4+ CD45RA+ (PBL; [8]): 12; CD8+ (PBL; [8]): 57; CD8+ CD45RA+ (PBL; [8]): 41; CD4+ (PBL; [9]): 37; CD4+ CD45RA+ (PBL; [9]): 22; CD8+ (PBL; [9]): 52; CD8+ CD45RA+ (PBL; [9]): 41; CD4+ (PBL; [10]): 37; CD4+ CD45RA+ (PBL; [10]): 23; CD8+ (PBL; [10]): 40; CD8+ CD45RA+ (PBL; [10]): 32; proliferative responses to GPBP (spleen cells): almost complete inhibition
